Data from publication PMC10235067, “Increased renal elimination of endogenous and synthetic pyrimidine nucleosides in concentrative nucleoside transporter 1 deficient mice” (Nature Communications, 2023).

Assays:
CNT1 [1] = molecular target: T1, CNT1 (Mus musculus, UniProt E9PXX9); conditions: Slc28a1+/+ (CNT1 WT) mice, urine, one value per animal; Figure 2D-F source data
T1 sequence (E9PXX9 1-648): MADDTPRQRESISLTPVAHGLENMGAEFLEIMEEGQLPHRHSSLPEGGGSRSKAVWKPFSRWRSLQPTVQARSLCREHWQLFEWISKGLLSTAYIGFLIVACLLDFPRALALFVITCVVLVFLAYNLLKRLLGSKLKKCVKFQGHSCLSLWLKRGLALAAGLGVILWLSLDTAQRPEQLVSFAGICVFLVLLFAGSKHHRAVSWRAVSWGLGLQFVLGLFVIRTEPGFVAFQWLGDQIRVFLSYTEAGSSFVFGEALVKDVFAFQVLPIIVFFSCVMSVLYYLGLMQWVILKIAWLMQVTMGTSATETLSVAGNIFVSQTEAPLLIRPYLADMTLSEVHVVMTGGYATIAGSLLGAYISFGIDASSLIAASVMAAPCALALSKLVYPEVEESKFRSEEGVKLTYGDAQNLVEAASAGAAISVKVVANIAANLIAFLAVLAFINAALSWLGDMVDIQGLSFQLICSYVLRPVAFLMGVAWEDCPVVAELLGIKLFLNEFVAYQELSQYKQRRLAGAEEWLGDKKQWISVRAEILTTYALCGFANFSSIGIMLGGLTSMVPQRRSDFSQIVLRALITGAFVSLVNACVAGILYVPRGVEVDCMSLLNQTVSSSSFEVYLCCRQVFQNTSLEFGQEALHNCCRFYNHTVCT
Method: (§1) Linearity was established for analytes over the concentration ranges observed and the lower limit of quantification of the LC–MS/MS assay was approximately 0.1 ng/ml for each analyte (Fig. S2).
(§2) Standard solutions of all nucleotide targets were serially diluted to generate calibration solutions at concentrations of 0.0, 0.0001, 0.001, 0.01, 0.1, 1.0, and 10 µg/ml. Urine samples were prepared by adding 20 µL of urine solution to 80 µL of 50:50 H2O:MeOH containing internal standard, vortexing and centrifuging at 20,000 × g; then, 50 µL aliquots were placed into glass vials, dried in a SpeedVac and reconstituted in 5% MeOH with 0.1% formic acid for injection.
(§3) Samples were quantified using a heated electrospray ionization source (HESI) on a Thermo Scientific TQS Quantiva triple quadrupole mass spectrometer, and separation was achieved using a Thermo Scientific Ultimate 3000 HPLC equipped with an Agilent 120 SB-C18 reversed-phase column (2 × 100 mm, 2.7 µm particle size) maintained at 40 °C. […] For all experiments, the capillary voltage was set to 4.5 kV with a capillary temperature of 350 °C, a vaporizer temperature of 100 °C, a sheath gas flow of 12, an auxiliary gas flow of 13, and a 1.6 sweep gas. For selected reaction monitoring (SRM) mode, Q1 and Q3 were set to 0.7 full width at half maximum (FWHM) resolution, a cycle time of 0.8 s, and a CID gas pressure of 1.5 mTorr.

CNT1 [2] = conditions: Slc28a1+/+ and Slc28a1-/- mice; 12 h starvation
Method: as §1, §2, §3

**Q.** With `Nc1ncnc2c1ncn2[C@H]1C[C@H](O)[C@@H](CO)O1` [deoxyadenosine] as the compound, how does the “Urine level of nucleoside / deoxynucleoside / nucleobase, CNT1 WT Urine (individual mice)” value (CNT1 [1]) read?
**A.** Its value is 0.

**Q.** What about the Concentration in urine (CNT1 [2]) of the same compound?
**A.** Its Concentration in urine is “undetectable”.
